From patent US20260263651A1, “WOUND DRESSING” (UNIVERSITY OF SUNDERLAND, priority 2023, published 2026)
“Also recorded” adds a separate entry of the source.

Legend:
Format in all cases: cell-based
Escherichia coli [1] = assay: Microbiological evaluation of overnight bacteria suspensions, modified alginate wound dressing with absorbed substrate on agar; details: for Observable colour change: EC overnight culture, 24 h incubation at 37° C.
Procedure: (§1) ACTIVHEAL® simply A (10×20 cm) non-adhesive foam samples were provided by Advanced Medical Solutions Ltd. The wound dressings were cut into ~5-10×5-10 mm squares, using an ethanol washed pair of scissors. A maximum of 0.20 g of the material was added into 10 mL DI water, and the pH was adjusted to ~3 by the addition of 0.1 M aq. HCl solution. The solution was stirred for 10 mins at room temperature, followed by the addition of 0.33 g EDC •HCl (1.7 mmol) and the pH was maintained at ~3 by the addition of 0.1 M aq. HCl solution. The solution was stirred at room temperature for 10 mins followed by the addition of 0.88 g compound 8 which was dissolved in DMSO or DMF. The mixture was stirred at room temperature for 48 h. The wound dressings were filtered and were washed with ethanol. To ensure the full removal of any non-coupled amide (8), the foam samples were resuspended in ethanol, stirred for 10 mins and filtered, and this process was repeated until the amide (8) was not detectable from the filtrate (this could be maintained by TLC or HPLC evaluation). The samples were dried in a vacuum oven for 3-4 h.
(§2) The aqueous solution of 3a or 3b was prepared by the following: the desired amount of the enzymatic substrate (3.0 mg for 300 mg/L, 6.0 mg for 600 mg/L, 9.0 mg for 900 mg/L, 15.0 mg for 1500 mg/L, and 30.0 mg for 3000 mg/L) was weighed out on a 4 decimal place balance within ±0.3 mg error limit into a 10 mL volumetric flask and was adjusted to 10.0 mL with DI water. The solutions were absorbed into the foam samples and dried in a vacuum oven at 40° C. overnight.
(§3) To model fluid exudate from a chronic wound, the wound dressing made according to ‘Modification of ActivHeal® Alginate’, above, was placed into an agar plate and the test pathogen was smeared over the surface of the agar.
(§4) The enzymatic substrates were tested in 4 different concentrations (300, 600, 900 and 3000 mg/L) using DI water as a solvent, and the solutions were absorbed into the wound dressing samples, which were dried overnight under vacuum at 40° C.
(§5) Two Gram negative strains (Escherichia coli—EC and Pseudomonas aeruginosa—PSA) and a Gram positive bacteria (Staphylococcus aureus—SA) were evaluated against the dimethyl (3a) and the diethyl (3b) substituted substrate. The overnight cultures were directly smeared from LB broth onto Columbia blood agar without measuring the OD. The wound dressings with the enzymatic substrate absorbed were placed onto the agar and were incubated overnight (see FIGS. 2-7).

Staphylococcus aureus = assay: as above; details: SA overnight culture, 24 h incubation at 37° C.
Procedure: as §1, §2, §3, §4, §5

Escherichia coli [2] = assay: Microbiological evaluation of standardised bacterial suspensions, modified wound dressing with absorbed substrate on agar; parameters: key to Observable colour change: − indicates no colour change; +− indicates relatively discernible blue colour change; + indicates a moderately strong blue colour change; ++ indicates a strong blue colour change
Procedure: as §1, §2
Bacterial strains were routinely cultured from working stocks in Tryptic Soy Broth (TSB) and incubated at 37° C. overnight with shaking at 150 RPM. Overnight cultures were centrifuged at 3000×g for 5 minutes, the supernatant discarded, and the pellet resuspended in 10 mL phosphate buffered saline (PBS). Bacterial inoculums were standardised by optical density at 600 nm on an Amersham Biosciences Ultrospec 10 spectrophotometer (Amersham Biosciences, Amersham, UK) to contain between 1 and 3×10^8 CFU/mL.
However, rapid evaluation of lower bacteria concentrations is essential for the desired clinical application. Three different solutions (300, 600 and 1500 mg/L) were prepared from the substrates 3a and 3b in micro filtered DI water as a solvent. The solutions were absorbed into the wound dressing samples, which were dried overnight under vacuum at 40° C.
Two Gram negative strains (Escherichia coli—EC and Pseudomonas aeruginosa—PSA) and a Gram-positive bacterium (Staphylococcus aureus—SA) were evaluated. The bacteria were incubated overnight, centrifuged at 3000×g for 5 mins, the supernatant was discarded, and the residue pellets were resuspended in 10 mL PBS. The inoculums were standardised by measuring the optical density at 600 nm to assure a 1-3×10^8 CFU/mL. The standardised solutions were further diluted to prepare 1-3×10^6 and 1-3×10^4 CFU/mL suspension. 1×10^6 CFU would be an ideal breakpoint for a positive result, as this concentration coincides well with a level of colonisation that would likely go on to produce an infection.
100 μL bacterial suspensions were smeared over agar plates. Wound dressing samples were added to the top of the agar and were rolled over a few times (to ensure a full coverage and to ease the visibility of the colour change). The plates were incubated at 37° C., and the results were recorded after 24 h, after 48 h, after 72 h. The results are shown in Table 3-5; − indicates no colour change, +− indicates relatively discernible blue colour change, + indicates a moderately strong blue colour change and ++ indicates a strong blue colour change.

[3] = EC 10^4, substrate 300 mg/L, 24 h at 37° C.
[4] = EC 10^4, substrate 300 mg/L, 48 h at 37° C.
[5] = EC 10^4, substrate 300 mg/L, 72 h at 37° C.
[6] = EC 10^4, substrate 900 mg/L, 24 h at 37° C.
[7] = EC 10^4, substrate 900 mg/L, 48 h at 37° C.
[8] = EC 10^4, substrate 900 mg/L, 72 h at 37° C.
[9] = EC 10^4, substrate 1500 mg/L, 24 h at 37° C.
[10] = EC 10^4, substrate 1500 mg/L, 48 h at 37° C.
[11] = EC 10^4, substrate 1500 mg/L, 72 h at 37° C.
[12] = EC 10^6, substrate 300 mg/L, 24 h at 37° C.
[13] = EC 10^6, substrate 300 mg/L, 48 h at 37° C.
[14] = EC 10^6, substrate 300 mg/L, 72 h at 37° C.
[15] = EC 10^6, substrate 900 mg/L, 24 h at 37° C.
[16] = EC 10^6, substrate 900 mg/L, 48 h at 37° C.
[17] = EC 10^6, substrate 900 mg/L, 72 h at 37° C.
[18] = EC 10^6, substrate 1500 mg/L, 24 h at 37° C.
[19] = EC 10^6, substrate 1500 mg/L, 48 h at 37° C.
[20] = EC 10^6, substrate 1500 mg/L, 72 h at 37° C.
[21] = EC 10^8, 10^6 or 10^4 CFU, after 72 h, every tested substrate concentration
[22] = EC 10^8, substrate 300 mg/L, 24 h at 37° C.
[23] = EC 10^8, substrate 300 mg/L, 48 h at 37° C.
[24] = EC 10^8, substrate 300 mg/L, 72 h at 37° C.
[25] = EC 10^8, substrate 900 mg/L, 24 h at 37° C.
[26] = EC 10^8, substrate 900 mg/L, 48 h at 37° C.
[27] = EC 10^8, substrate 900 mg/L, 72 h at 37° C.
[28] = EC 10^8, substrate 1500 mg/L, 24 h at 37° C.
[29] = EC 10^8, substrate 1500 mg/L, 48 h at 37° C.
[30] = EC 10^8, substrate 1500 mg/L, 72 h at 37° C.

For `CC(C)C[C@H](N)C(=O)Nc1ccc(N(C)C)cc1.Cl` [3a, (2S)-2-amino-N-[4-(dimethylamino)phenyl]-4-methyl-pentanamide hydrochloride], the Observable colour change (Escherichia coli [1]; substrate 300 mg/L) was “Light blue”, the Observable colour change (Escherichia coli [1]; substrate 600 mg/L) was “Light blue” and the Observable colour change (Escherichia coli [1]; substrate 900 mg/L) was “Blue”. The Observable colour change (Escherichia coli [1]; substrate 3000 mg/L) was “Dark blue”, the Observable colour change (Staphylococcus aureus; substrate 300 mg/L) was “None” and the Observable colour change (Staphylococcus aureus; substrate 600 mg/L) was “Pale blue”. The Observable colour change (Staphylococcus aureus; substrate 900 mg/L) was “None”, the Observable colour change (Staphylococcus aureus; substrate 3000 mg/L) was “Light blue” and the Observable colour change (Escherichia coli [2]; [3]) was “−”. The Observable colour change (Escherichia coli [2]; [4]) was “−”, the Observable colour change (Escherichia coli [2]; [5]) was “−” and the Observable colour change (Escherichia coli [2]; [6]) was “−”. For the same compound, the Observable colour change (Escherichia coli [2]; [7]) was “−”, the Observable colour change (Escherichia coli [2]; [8]) was “+” and the Observable colour change (Escherichia coli [2]; [9]) was “−”. The Observable colour change (Escherichia coli [2]; [10]) was “+−”, the Observable colour change (Escherichia coli [2]; [11]) was “+” and the Observable colour change (Escherichia coli [2]; [12]) was “−”. For the same compound, the Observable colour change (Escherichia coli [2]; [13]) was “+−”, the Observable colour change (Escherichia coli [2]; [14]) was “+” and the Observable colour change (Escherichia coli [2]; [15]) was “−”. For the same compound, the Observable colour change (Escherichia coli [2]; [16]) was “+−”, the Observable colour change (Escherichia coli [2]; [17]) was “+” and the Observable colour change (Escherichia coli [2]; [18]) was “+−”. For the same compound, the Observable colour change (Escherichia coli [2]; [19]) was “+”, the Observable colour change (Escherichia coli [2]; [20]) was “++” and the colour change (Escherichia coli [2]; [21]) was “moderate or strong blue colour changes”. For the same compound, the Observable colour change (Escherichia coli [2]; [22]) was “+−”, the Observable colour change (Escherichia coli [2]; [23]) was “+” and the Observable colour change (Escherichia coli [2]; [24]) was “++”. The Observable colour change (Escherichia coli [2]; [25]) was “+−”, the Observable colour change (Escherichia coli [2]; [26]) was “+” and the Observable colour change (Escherichia coli [2]; [27]) was “++”. The Observable colour change (Escherichia coli [2]; [28]) was “+−”, the Observable colour change (Escherichia coli [2]; [29]) was “+” and the Observable colour change (Escherichia coli [2]; [30]) was “++”. The colour change (Escherichia coli [2]; EC, substrate 900 or 1500 mg/L, printed in the 48 h paragraph) was “moderate or strong colour change”.
In the case of `CCN(CC)c1ccc(NC(=O)[C@@H](N)CC(C)C)cc1.Cl` [3b, (2S)-2-amino-N-[4-(diethylamino)phenyl]-4-methyl-pentanamide hydrochloride], the Observable colour change (Escherichia coli [1]; substrate 300 mg/L, hydrochloride) is reported as “blue colour changes; also recorded: Light blue”, the Observable colour change (Escherichia coli [1]; substrate 600 mg/L) is reported as “Light blue” and the Observable colour change (Escherichia coli [1]; substrate 900 mg/L) is reported as “Dark blue”. The Observable colour change (Escherichia coli [1]; substrate 3000 mg/L) was “Dark blue”, the “colour change strength compared with the dimethyl analogue” value (Escherichia coli [1]; overnight cultures (EC, PSA, SA), overall comparison of Table 2) was “stronger colour changes than the dimethyl analogue (3a)” and the Observable colour change (Staphylococcus aureus; substrate 300 mg/L) was “None”. The Observable colour change (Staphylococcus aureus; substrate 600 mg/L) was “None”, the Observable colour change (Staphylococcus aureus; substrate 900 mg/L) was “None” and the Observable colour change (Staphylococcus aureus; substrate 3000 mg/L, hydrochloride) was “produced the colour change and Blue”. The Observable colour change (Escherichia coli [2]; [3]) was “−”, the Observable colour change (Escherichia coli [2]; [4]) was “+” and the Observable colour change (Escherichia coli [2]; [5]) was “+”. The Observable colour change (Escherichia coli [2]; [6]) was “−”, the Observable colour change (Escherichia coli [2]; [7]) was “+” and the Observable colour change (Escherichia coli [2]; [8]) was “++”. The Observable colour change (Escherichia coli [2]; [9]) was “−”, the Observable colour change (Escherichia coli [2]; [10]) was “+” and the Observable colour change (Escherichia coli [2]; [11]) was “++”. The Observable colour change (Escherichia coli [2]; [12]) was “−”, the Observable colour change (Escherichia coli [2]; [13]) was “+” and the Observable colour change (Escherichia coli [2]; [14]) was “+”. The Observable colour change (Escherichia coli [2]; [15]) was “−”, the Observable colour change (Escherichia coli [2]; [16]) was “+” and the Observable colour change (Escherichia coli [2]; [17]) was “++”. For the same compound, the Observable colour change (Escherichia coli [2]; [18]) was “+−”, the Observable colour change (Escherichia coli [2]; [19]) was “+” and the Observable colour change (Escherichia coli [2]; [20]) was “++”. For the same compound, the colour change (Escherichia coli [2]; EC 10^6 CFU and 10^4 CFU, after 48 h incubation) was “moderate colour change”, the colour change (Escherichia coli [2]; [21]) was “moderate or strong blue colour changes” and the Observable colour change (Escherichia coli [2]; [22]) was “+−”. For the same compound, the Observable colour change (Escherichia coli [2]; [23]) was “+”, the Observable colour change (Escherichia coli [2]; [24]) was “+” and the Observable colour change (Escherichia coli [2]; [25]) was “+−”. The Observable colour change (Escherichia coli [2]; [26]) was “++”, the Observable colour change (Escherichia coli [2]; [27]) was “++” and the Observable colour change (Escherichia coli [2]; [28]) was “+−”. The Observable colour change (Escherichia coli [2]; [29]) was “++”, the Observable colour change (Escherichia coli [2]; [30]) was “++” and the colour change (Escherichia coli [2]; EC 10^8 CFU, 10^6 CFU, and 104 CFU, substrate 900 mg/L, printed in the 48 h paragraph) was “strong blue colour changes”. For the same compound, the colour change (Escherichia coli [2]; EC 10^8 CFU, after 48 h incubation, substrate 900 or 1500 mg/L) was “strong blue colour changes”.
